The values that follow come from patent publication US4244956A, “Method of treating inflammation” (Forsyth Dental Infirmary for Children, priority 1979, dated 1981).

One assay concerns the target T1, prostaglandin synthetase (Ovis aries, UniProt P05979).
T1 construct: sheep vesicular gland microsomal preparation; from tissue; host or cells: sheep vesicular gland microsomes
T1 sequence (P05979 25-600): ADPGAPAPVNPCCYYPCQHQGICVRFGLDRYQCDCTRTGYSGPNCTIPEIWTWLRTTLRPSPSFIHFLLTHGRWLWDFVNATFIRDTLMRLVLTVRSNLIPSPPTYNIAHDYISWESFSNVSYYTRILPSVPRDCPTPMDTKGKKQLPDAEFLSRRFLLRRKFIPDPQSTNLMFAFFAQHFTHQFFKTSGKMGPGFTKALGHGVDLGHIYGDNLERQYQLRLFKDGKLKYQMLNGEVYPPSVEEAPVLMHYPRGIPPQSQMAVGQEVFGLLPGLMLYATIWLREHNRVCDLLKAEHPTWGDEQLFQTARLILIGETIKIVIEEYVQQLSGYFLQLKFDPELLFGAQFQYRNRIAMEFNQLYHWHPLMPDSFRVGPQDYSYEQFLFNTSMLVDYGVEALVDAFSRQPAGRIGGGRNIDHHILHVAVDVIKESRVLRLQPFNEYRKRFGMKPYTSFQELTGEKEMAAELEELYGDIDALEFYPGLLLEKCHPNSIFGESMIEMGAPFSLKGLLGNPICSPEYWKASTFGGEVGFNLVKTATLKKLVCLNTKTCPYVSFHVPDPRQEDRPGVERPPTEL
The assay can be described thus: Inhibition of prostaglandin synthesis, sheep vesicular gland microsomal preparation, oxygen electrode. The conditions noted are these: sheep vesicular gland microsomes, pH 8.0, inhibitor added 1 minute before arachidonate; oxygen uptake; read-out: [I]50 Values for Inhibition of Prostaglandin Synthesis. In kind it is biochemical. The protocol:
A commonly used model system for examination of prostaglandin synthetase inhibition is the sheep vesicular gland microsomal preparation (Wallach, D. P. and Daniels, E. G., Biochim. Biophys. Acta., 231: 445-457 (1971)). Prostaglandin synthetase activity was determined by following oxygen tension in a closed reaction chamber using a Clark-type oxygen electrode. For each assay, 2.9 ml of 0.1 M tris HCl buffer, pH 8.0, 10 ul of 0.2 M phenol, and 50 ul of enzyme suspension (2.5 mg microsomal preparation) were added to the reaction chamber. 10 ul of inhibitor in ethanol were added 1 minute prior to initiation of the reaction. The reaction was initiated by addition of 10 ul of 3.7 mM arachidonate solution. The concentration of an inhibitor that reduced prostaglandin synthesis by 50% ([I]50) was determined from plots of activity v. log concentration of inhibitor.

The next assay relates to platelet aggregation. The assay can be described thus: Inhibition of arachidonate-induced platelet aggregation in platelet-rich plasma (aggregometer). As to conditions: 37° C, 50 ul of 10 mM arachidonate, read-out: [I]50, concentration of inhibitor which prevented irreversible aggregation 50% of the time. The class given is cell-based. The protocol: Inhibition of platelet aggregation by prostaglandin synthetase inhibitors is of potential value in treating thromboembolic disorders. Aggregation experiments were performed in a single-channel Chrono-log Platelet Aggregometer at 37° C. To 500 ul of platelet-rich plasm were added 2 ul of inhibitor solution and 50 ul of 10 mM arachidonate. The [I]50 value was defined as the concentration of inhibitor which prevented irreversible aggregation 50% of the time. The [I]50 of 2-(phenylmethoxy)phenol was 0.57 uM.

The structures appear in SMILES notation.

For the molecule `Oc1ccccc1OCc1ccccc1` [2-(phenylmethoxy)phenol], the IC50 at prostaglandin synthetase came out at 5.2 µM; in the assay on platelet aggregation, 0.57 µM.
Take `Oc1ccccc1OCc1cccc(Cl)c1` [2-(3-chlorophenylmeythoxy)phenol, 2-(3-chlorophenylmethoxy)phenol]: on prostaglandin synthetase, the IC50 is 3.3 µM.
The same measure, in the same setting: next, `Cc1ccccc1COc1ccccc1O` [2-(2-methylphenylmethoxy)phenol]: 4.7 µM.
